Source: patent US20080140036A1, “Antimicrobial Composition” (priority 2004, published 2008)

Test system: not given
Experiment: not given
Settings: cited from earlier work

Row | SMILES | logP(o/w)
1 | CCCCCCCCO [octanol] | 2.8
2 | Fc1cccc(F)c1 [1,3-Difluorobenzene] | 2.4
3 | CCCCCC(C)=O [heptan-2-one] | 1.9
4 | Cc1cccc(I)c1 [3-Iodotoluene] | 3.7
5 | CC/C=C\CCOC(C)=O [(Z)-3-hexenyl acetate] | 1.5
6 | CCCCCC1CCCC(=O)O1 (centres unmarked) [Micap 5-decanolide, 5-decanolide] | 3.1
7 | CC/C=C\CCOC(=O)CCC [(Z)-3-hexenyl butanoate] | 2.4
8 | CCCCCCCCC(=O)OCC [ethyl nonanoate] | 3.7
9 | CCOC(=O)CC(C)C [ethyl 3-methylbutanoate] | 1.8
10 | CCCCCCCO [Micap 1-Heptanol, 1-Heptanol] | 3.1
11 | CCCCCCCCOC(=O)C(C)C [octyl isobutyrate] | 4.2
12 | Fc1cc(F)cc(F)c1 [1,3,5-Trifluorobenzene] | 2.6
13 | CC/C=C/CC(=O)OCC [ethyl (E)-3-hexenoate] | 1.7
14 | CC(C)=CC(=O)OCCc1ccccc1 [2-phenylethyl 3-methyl-2-butenoate] | 2.7
15 | CCCCCC(=O)OCC [ethyl hexanoate] | 2.3
16 | CC(=O)OCC(COC(C)=O)OC(C)=O [triacetin] | 0.4

Row | SMILES | logP(o/w)
17 | COC(=O)CCCCC(=O)OC [Dimethyl adipate] | 1.4
18 | CCCCCCCCC [Nonane] | 4.8
19 | CCCCCCCCN1CCCC1=O [1-octyl-2-pyrrolidinone] | 3.3
20 | CCCCCCCC1CCCC(=O)O1 (racemic) [(+−)-5-dodecanolide] | 4.0
21 | CC(C)CCN [3-methyl butylamine] | 1.1
22 | CCc1ccc(O)c(OC)c1 [4-ethyl-2-methoxy phenol] | 2.4
23 | CCCCCCCCCC [Decane] | 5.3
24 | CC/C=C\CCOC(=O)C(C)CC (centres unmarked) [(Z)-3-hexenyl 2-methylbutanoate] | 2.8
25 | CCCCCCCCOC(C)=O [octyl acetate] | 3.3
26 | CCCCCCCCCCCCCC [Tetradecane] | 7.2
27 | CCCCCCC(C)=O [octan-2-one] | 2.3
28 | CCCSSCCC [dipropyl disulfide] | 3.7
29 | CCCCC(C)C(=O)O (centres unmarked) [2-methyl hexanoic acid] | 2.1
30 | CC(C)c1ccccc1O [2-isopropyl phenol] | 2.7
31 | C=CC(C)(CCC=C(C)C)OC(=O)CCCCC (centres unmarked) [1,5-dimethyl-1-vinyl-4-hexenyl hexanoate] | 4.5

Test system: Candida Albicans
Experiment: Franz cell bioassay, infected stratum corneum sheet, ATP assay
Format: cell-based
Settings: after 2 hours incubation, FIG. 6
Protocol: The concentration of organisms in suspension was determined by fluorescence technique and a viable count used for confirmation by conducting an ATP assay where ATP in cell lysate represents a measure for viable cells. Therefore, the number of viable cells after exposure to drug can be measured for drug activity and was used for suspension method or skin model.
Stratum corneum (SC) sheets were infected with microorganisms in-vitro and a Franz cell was set-up to provide more realistic conditions than agar plate test
A sample of Candida albicans (5×10^7) was dried on the stratum corneum sheet and PBS used as receiver fluid. The Micap formulations were used at 10% aqueous suspensions and the Micap formulations and Pevaryl® were applied to the stratum corneum sheet and incubated at 37° C. The reaction was stopped after set time by dismantling the Franz cell and transferring the stratum corneum into TCA. ATP assay was then carried out on the cell lysate to determine activity.

Row | SMILES | ATP remaining
32 | CCO [20% ethanol, ethanol] | 75%
